Results: PMC10492782, “Exploiting the aggregation propensity of beta-lactamases to design inhibitors that induce enzyme misfolding” (Nature Communications, 2023)

Columns and labels:
[1] = system: E. coli K12 MG1655 overexpressing GFP; test: Structured illumination microscopy of strains expressing GFP or FP fusions; assay type: cell-based, Escherichia coli; settings: strains stably expressing GFP or proteins fused to FPs treated with TEM3.2
Excerpt: (§1) Fig. 5 Induction of aggregation in cells. […] A single representative image is shown. […] A single representative image is shown. C SIM and brightfield images as in A, but for E. coli ATCC strain. […] A single representative image is shown. […] A single representative blot is shown. […] The corrected P-values were 0.6091, 0.0029, 0.0027, <0.0001, and 0.9992, from left to right. […] Statistics exactly as in E, but from 3 independent experiments. The corrected P-values were 0.8753, 0.9796, 0.0001, 0.0003, and 0.0003, from left to right. Source data are provided as a Source Data file.
Bacteria were fixed by adding 2.5% paraformaldehyde and 0.04 % glutaraldehyde (final concentrations) to the culture media, followed by incubation at room temperature for 15 min and 30 min on ice. Bacteria were then washed in PBS and resuspended in GTE buffer (50 mM glucose, 25 mM Tris, and 10 mM EDTA, pH 8.0). Directly preceding microscopic analysis, cells were transferred to a glass slide and covered with a coverslip. Imaging was performed using a Zeiss Elyra S.1 system in the VIB BioImaging Core at KU Leuven.

[2] = system: uro-pathogenic E. coli strain (UPEC strain blaTEM-1); test: MIC of ampicillin with or without 32 µg/mL TEM3.2 or tazobactam; assay type: cell-based, Escherichia coli; settings: 32 μg/mL of either TEM3.2 or tazobactam
Protocol: (§2) We also performed a tolerability study using a dose escalation method by administering the peptide at 2, 5, 10, 15, and 20 mg/kg via different parenteral routes: intravenous (IV), intraperitoneal (IP), and subcutaneous (SC) in female C57BL/6JAX mice, aged 8–10 weeks (Suppl Table 4). […] Vehicle alone (0.9% NaCl) was also administered (IV). After 24 h the animals were sacrificed and the bacterial load in the bladder, kidney, and ureter was quantified by determining the number of colony-forming units (CFU) per mL of tissue extract (Fig. 7E–G).
Determination of MIC values was performed using the broth microdilution method according to the EUCAST guideline, which was performed in 96-well polystyrene flat-bottom microtiter plates (BD Biosciences). Briefly, a single colony was inoculated into 5 mL Difco™ Mueller–Hinton Broth (BD Biosciences Ref 275730) and grown to the end-exponential growth phase in a shaking incubator at 37 °C. Cultures were subsequently diluted to a MacFarland (0.5 optical density) to reach 10^6 CFU/mL in fresh MHB medium. 50 µl of different concentrations of peptides ranging from 128 to 2 µg/mL were serially diluted to the sterile 96-well plate in MHB. 50 µL of the diluted bacteria in MHB were next pipetted into 96-well plates to reach the final volume of 100 µL. The bacteria grown with the maximum concentration of carrier and medium were considered positive and negative controls, respectively. The plates were statically incubated overnight at 37 °C to allow bacterial growth. OD was measured at 590 nm using a multipurpose ultraviolet–visible plate reader, and the absorbance of the bacterial growth was measured using an absorbance reader.

[3] = Tolerability, dose escalation; assay type: in vivo, female C57BL/6JAX mice; settings: mice; for Tox beheviour Sub: subcutaneous
Protocol: as §2, with “7E–G). […]” for “7E–G).”

[4] = biological target: T1, TEM beta-lactamase in E. coli strain UZ_TEM104 (Escherichia coli, UniProt P62593); test: Western blot of inclusion body fraction; assay type: cell-based; settings: 12 μM peptide in PBS, 120 min
T1 construct: endogenous in cells
Excerpt: as §1
Overnight cultures of bacteria were centrifuged for 30 min at 4000 × g and cells were washed with physiological water (NaCl 0.9%). Bacterial cells were treated by peptide at the appropriate concentration for at least 2 h at 37 C. The bacterial pellets were washed with 10 mL buffer A (50 mM HEPES, pH 7.5, 300 mM NaCl, 5 mM β-mercaptoethanol, 1.0 mM EDTA) and centrifuged at 4 °C for 30 min at 4000 × g. […]

T1 sequence (P62593 24-286 limits assumed): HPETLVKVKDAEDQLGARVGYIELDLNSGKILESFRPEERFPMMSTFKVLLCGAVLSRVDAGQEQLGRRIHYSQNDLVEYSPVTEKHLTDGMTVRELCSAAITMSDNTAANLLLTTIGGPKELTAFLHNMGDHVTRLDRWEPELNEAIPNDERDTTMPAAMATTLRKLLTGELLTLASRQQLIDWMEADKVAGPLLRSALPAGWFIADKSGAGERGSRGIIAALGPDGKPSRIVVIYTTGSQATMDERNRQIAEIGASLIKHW

Ac-RLTAFLHNRRPRLTAFLRQRR-NH2 [TEM3.2]
induced aggregation of unrelated fluorescent proteins (in words) [1]: did not observe a similar induced aggregation of the fluorescent proteins | MIC Ampicillin in the presence of additive [2]: 25 µg/mL | Tox beheviour IP ([3]; 2 mg/Kg): no sign of tox | Tox beheviour IV ([3]; 2 mg/Kg): no sign of tox | Tox beheviour Sub ([3]; 2 mg/Kg): no sign of tox | Tox beheviour IP ([3]; 5 mg/Kg): no sign of tox | Tox beheviour IV ([3]; 5 mg/Kg): no sign of tox | Tox beheviour Sub ([3]; 5 mg/Kg): no sign of tox | Tox beheviour IP ([3]; 10 mg/Kg): no sign of tox | Tox beheviour IV ([3]; 10 mg/Kg): no sign of tox | Tox beheviour Sub ([3]; 10 mg/Kg): no sign of tox | Tox beheviour IP ([3]; 15 mg/Kg): no sign of tox | Tox beheviour IV ([3]; 15 mg/Kg): no sign of tox | Tox beheviour Sub ([3]; 15 mg/Kg): no sign of tox | Tox beheviour IP ([3]; 20 mg/Kg): no sign of tox | Tox beheviour IV ([3]; 20 mg/Kg): no sign of tox | Tox beheviour Sub ([3]; 20 mg/Kg): no sign of tox | TEM protein in inclusion body fraction, western blot (in words) [4]: clear enrichment of the TEM protein in IBs
